According to PMC11509018, “Evaluation of the Role of Tanshinone I in an In Vitro System of Charcot-Marie-Tooth Disease Type 2N” (International Journal of Molecular Sciences, 2024):

Target: T1, AlaRS N71Y binding to GST-Nrp1 b1 (Homo sapiens, UniProt P49588, N71Y)
T1 construct: made in house; host or cells: E. coli BL21 (DE3), pET-21a for AlaRS
T1 sequence (P49588 1-968 N71Y): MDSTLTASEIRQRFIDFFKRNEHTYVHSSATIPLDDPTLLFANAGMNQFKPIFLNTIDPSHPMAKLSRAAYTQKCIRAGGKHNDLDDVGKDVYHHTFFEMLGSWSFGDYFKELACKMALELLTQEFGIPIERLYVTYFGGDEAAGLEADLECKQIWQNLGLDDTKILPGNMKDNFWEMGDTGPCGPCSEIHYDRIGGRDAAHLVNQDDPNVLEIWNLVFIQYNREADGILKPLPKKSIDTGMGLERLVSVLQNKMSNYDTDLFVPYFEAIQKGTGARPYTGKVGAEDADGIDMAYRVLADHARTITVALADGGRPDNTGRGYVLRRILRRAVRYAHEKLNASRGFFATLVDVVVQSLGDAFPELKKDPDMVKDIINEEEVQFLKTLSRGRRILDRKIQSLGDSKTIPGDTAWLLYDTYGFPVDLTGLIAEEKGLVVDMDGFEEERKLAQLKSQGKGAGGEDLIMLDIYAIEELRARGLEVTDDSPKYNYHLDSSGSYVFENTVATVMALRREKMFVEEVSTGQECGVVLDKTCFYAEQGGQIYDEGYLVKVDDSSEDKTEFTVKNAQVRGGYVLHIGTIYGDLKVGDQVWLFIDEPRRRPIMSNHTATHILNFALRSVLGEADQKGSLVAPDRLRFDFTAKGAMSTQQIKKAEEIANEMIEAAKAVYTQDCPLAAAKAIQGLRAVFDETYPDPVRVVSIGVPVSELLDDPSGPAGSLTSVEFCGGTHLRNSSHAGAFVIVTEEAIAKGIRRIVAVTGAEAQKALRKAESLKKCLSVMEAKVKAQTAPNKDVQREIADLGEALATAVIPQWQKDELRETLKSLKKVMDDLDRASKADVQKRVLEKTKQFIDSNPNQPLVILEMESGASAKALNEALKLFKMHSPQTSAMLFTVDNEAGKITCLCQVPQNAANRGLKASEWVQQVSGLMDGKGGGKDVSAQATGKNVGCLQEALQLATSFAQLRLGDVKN
Assay: GST pull down assay
Details: 20 µM Tanshinone I, ImageJ, average of three repeats
Procedure: To further investigate whether Tanshinone I-induced conformational changes in AlaRS CMT mutants affect their interaction with Nrp1, Co-IP experiments were performed in cells treated with Tanshinone I. By comparing Co-IP results obtained before and after treatment, we assessed the influence of the drug on the binding strength and mode between the AlaRS CMT mutants and Nrp1. […] To confirm the direct effect of Tanshinone I on the interaction between AlaRS CMT mutants and Nrp1, pull-down experiments were performed. […] Given that the interaction between AlaRS mutants and Nrp1 is associated with disease progression in CMT, the ability of Tanshinone I to disrupt this binding highlights its potential to intervene in the pathogenic mechanisms of these diseases.
Figure 7 The impact of Tanshinone I on the interaction between AlaRS mutants and Nrp1. (A) Co-IP assays were conducted to assess the binding between HA-AlaRS mutants and Nrp1, both with and without treatment with 20 µM Tanshinone I for 24 h. […] (C) Pull down assay was performed to detect the binding between AlaRS mutants and GST-Nrp1 b1 with or without 20 µM Tanshinone I. (D) Relative quantification statistics of the AlaRS mutants pulled down from the GST pull down experiments after Tanshinone I treatment were performed using ImageJ. (E) The cell viability of 293T and NSC34 cells treated with different concentrations of Tanshinone I was assessed using the CCK-8 assay over a 24 h period. TEXT PRINTED IN THE PICTURE: (B) Tanshinone I: Mean density band (N71Y): 0.60; Mean density band (G102R): 0.53; Mean density band (R326W): 0.50; Mean density band (R329H): 0.50; Mean density band (E337K): 0.62 | (D) Tanshinone I: Mean density band (N71Y): 0.82; Mean density band (G102R): 0.76; Mean density band (R326W): 0.84; Mean density band (R329H): 0.84; Mean density band (E337K): 0.90
To detect the direct interactions between the mutant proteins and Nrp1 in vitro, we performed a Glutathione S-transferase (GST) pull-down assay. AlaRS mutants fused with 6 × His were purified with Ni-NTA beads, followed by chromatography on a HiTrap Q HP column. Nrp1 b1 fragments fused with GST were purified with Glutathione Beads (#SA008100, Smart-Lifesciences, Changzhou, China). For GST pull-down assays, 1000 μg of each GST-fused Nrp1 b1 fragment was mixed with 200 μg of 6 × His-tagged fusion protein in binding buffer (50 mM Tris-HCl pH 7.5, 20 mM NaCl, 5% glycerol, 5 mM DTT with 0.1% BSA) at 4 °C overnight. The mixture was next incubated with 30 μL glutathione beads at 4 °C with constant rotation for 2–4 h. Subsequently, the bead/protein complex was washed three times, and eluted with 30 μL 2 × SDS sample buffer. The samples were then subjected to SDS-PAGE analysis. The experiment was repeated three times.

Mean density band (N71Y), relative quantification of AlaRS mutant pulled down: 0.82
Compound: Cc1coc2c1C(=O)C(=O)c1c-2ccc2c(C)cccc12 [Tanshinone I]
